Laboratory results taken from publication PMC3369139, “Preclinical evaluation of two ^68Ga-siderophores as potential radiopharmaceuticals for Aspergillus fumigatus infection imaging” (European Journal of Nuclear Medicine and Molecular Imaging, 2012).
Where “and” joins values, the source holds several entries; their conditions need not be identical. Identical values can stand only once.

Legend:
[1] = Protein binding in human serum; assay type: in vitro ADME
Protocol: (§1) TAFC and FOXE were labelled with ^68Ga using acetate buffer at room temperature for 15 min (TAFC) and at 80 °C for 20 min (FOXE). For all in vitro and in vivo studies, the pH of the final product was adjusted with 1.1 M sodium acetate to pH 6–7. The radiochemical purity, log P, protein binding and stability of ^68Ga-siderophores in various media were determined, as described previously.

A. fumigatus [2] = test: Ex vivo biodistribution in rat A. fumigatus infection model, iron preload; design: species or system Lewis rats
Protocol: (§2) The A. fumigatus (A29) isolate was grown on Sabouraud dextrose agar (BD) for 5 days at 37 °C, and the conidia were harvested in 2 ml of sterile NaCl by gently rubbing with a pipette tip. The conidia suspension was transferred into a sterile 50 ml plastic tube. After homogenization (vortex) and filtration (40 μm nylon cell strainer; BD), the suspension was counted in a Neubauer chamber and adjusted to the volitional concentration in the range 1 × 10^5 to 1 × 10^9 conidia per millilitre.
(§3) Female or male Lewis rats (2–3 months old), weighing 200–250 g, were treated as described previously. Briefly, the rats received repeated intraperitoneal injections of cyclophosphamide to induce neutropenia before A. fumigatus administration. To prevent bacterial superinfection, the animals were given antibiotics throughout the experiment. Fungal infection was established by intratracheal administration of 100–300 μl of A. fumigatus inoculum in various concentrations (1 × 10^5 to 1 × 10^9 conidia per millilitre). Animals were injected intravenously 1–3 days (depending on the severity of infection) after A. fumigatus administration with ^68Ga-labelled siderophore (10–20 MBq and 1–2 μg of siderophore per rat). The rats were imaged or killed by overdosing with thiopental (Sandoz, Kundl, Austria) 2 h after injection. Various organs and tissues (blood, spleen, kidneys, liver and lungs) were removed and radioactivity was measured in a γ-counter. The excised organs were investigated for the presence of fungi, as described below.
Rats were treated as in the ‘standard’ infection model above, except that iron solution (FerMed; Medice, Iserlohn, Germany) 10 mg/kg was injected intraperitoneally three times (1 week, 4 days and 1 day) before A. fumigatus administration.
(§4) The excised organs were homogenized in a petri dish using a sterile surgical blade and transferred to Sabouraud dextrose agar (BD) plates. The plates were incubated at 37 °C and examined daily for 7 days. […] Severe infection was defined as the presence of severe fungal growth 1 day after incubation, mild infection was defined as the presence of minor growth up to 3 days after incubation, and no infection was defined as lack of growth within 1 week of incubation.

Stability in 6 mM DTPA = assay type: physicochemical
Protocol: as §1

A. fumigatus [3] = test: Ex vivo biodistribution in rat A. fumigatus infection model, standard; design: species or system Lewis rats
Protocol: as §2, §3, §4

[4] = Biodistribution in normal Balb/c mice; assay type: in vivo; conditions: normal noninfected Balb/c mice, i.v. tail vein
Protocol: Normal noninfected Balb/c mice (female, 6 weeks old) were injected with ^68Ga-siderophore (2 MBq and 0.1–0.2 μg of siderophore per mouse) into the tail vein. Animals were killed by cervical dislocation 30 min and 90 min after injection. The organs and tissues (blood, spleen, pancreas, stomach, intestines, kidneys, liver, heart, lungs, muscle and femur) were removed and radioactivity was counted in a γ-counter. The results are expressed as percentage of injected dose per gram of tissue.

[5] = system: A. fumigatus wild-type ATCC46645; test: In vitro uptake of ^68Ga-siderophores by A. fumigatus cultures; assay type: cell-based, Aspergillus fumigatus; conditions: room temperature
Protocol: The Aspergillus strain used for in vitro studies was A. fumigatus wild-type ATCC46645 (American Type Culture Collection) cultured at 37 °C in Aspergillus minimal medium, containing 1 % glucose as the carbon source, 20 mM glutamine as the nitrogen source, salts and trace elements, as described previously. Iron-sufficient media contained […] FeSO4. For preparation of iron-deficient media, iron addition was omitted. Iron-deficient conditions were verified by detection of extracellular siderophore production, which is suppressed by iron.
Uptake by A. fumigatus in iron-deficient and iron-sufficient cultures was studied. For the monitoring of uptake over time, ^68Ga-siderophores (5 ng) were incubated in microbial media for 10, 20, 30, 45, 60 and 90 min at room temperature in 96-well plates (Millipore, Billerica, MA). For the monitoring of uptake blocking, excess of ferri-siderophore (Fe-TAFC or Fe-FOXE) and/or sodium azide was used. ^68Ga-siderophores were incubated in iron-deficient and iron-sufficient media for 45 min at room temperature in 96-well plates. The incubation was interrupted in both cases by filtration of the medium and rapid rinsing with ice-cold TRIS buffer. The filters were collected and counted in a γ-counter.

Stability in 0.1 M FeCl3 = assay type: physicochemical
Protocol: as §1

Stability in human serum = assay type: in vitro ADME
Protocol: as §1

A. fumigatus [6] = test: PET imaging in rat A. fumigatus infection model; assay type: in vivo, Lewis rats; conditions: infected rats, lungs, mean ± sd
Protocol: as §3
PET images were acquired with an Inveon animal PET/CT scanner (Siemens Preclinical Solutions, Knoxville, TN) with an intrinsic spatial resolution of 1.5 mm. The animals were placed in a prone position. Static PET images were acquired over 30 min starting 30 min after intravenous injection of ^68Ga-siderophore. Dynamic PET imaging was started upon injection and continued up to 60 min after injection. In addition, combined PET/CT scans were performed for anatomical reference. PET emission scans were acquired for 30 min, preceded by CT scans (spatial resolution 113 μm, 80 kV, 500 μA, exposure time 300 ms). After imaging, animals were killed by CO2/O2. Scans were reconstructed using Inveon Acquisition Workplace software (version 1.5; Siemens Preclinical Solutions, Knoxville, TN) using a 3-D ordered subset expectation maximization/maximum a posteriori (OSEM3D/MAP) algorithm with the following parameters: matrix 256 × 256 × 159, pixel size 0.43 × 0.43 × 0.8 mm^3 and a MAP prior β-value of 1.5.

[7] = Log P of ^68Ga-siderophores; assay type: physicochemical; conditions: determined as described previously [20]
Protocol: as §1

[8] = Metabolic stability in normal Balb/c mice (RP-HPLC of urine, blood, liver and kidney homogenates); assay type: in vivo; conditions: 30 min p.i., % intact on RP-HPLC
Protocol: Urine, blood, liver and kidneys of normal Balb/c mice injected with ^68Ga-siderophores and treated as described previously were collected 30 min after injection. The urine sample was directly injected onto the RP-HPLC column. Blood samples were precipitated with acetonitrile and centrifuged for 2 min, and the supernatant was injected onto the RP-HPLC column. Liver and kidneys were washed in the ice-cold TRIS buffer and liquidized using a mixer in a falcon tube containing 1 ml of TRIS buffer. The liver and kidney homogenates obtained were mixed with acetonitrile and centrifuged for 2 min, and the supernatant was injected onto the RP-HPLC column. In all cases 1 min fractions of the column eluate were collected and measured in a γ-counter. Samples were not collected at 90 min after injection because the measured activity was already low in the samples obtained 30 min after injection. All metabolic studies were performed using a previously described HPLC method.

[9] = iron preload model, 2 h after injection

O=C1CCC(=O)N([O-])CCCCCNC(=O)CCC(=O)N([O-])CCCCCNC(=O)CCC(=O)N([O-])CCCCCN1.[68Ga+3] [^68Ga-FOXE, ferrioxamine E]
Protein binding (%) ([1]; incubation time 30 min): 0.27%
Protein binding (%) ([1]; incubation time 60 min): 0.24%
Protein binding (%) ([1]; incubation time 120 min): 0.53%
Severe infection (%ID/g - lungs) (A. fumigatus [2]; iron preload model (10 mg/kg i.p. three times), severely infected rats, lungs 2 h after injection, n in cell): 1.72 (n=1) %ID/g
Lung/blood ratio, control (A. fumigatus [2]; [9]): 0.64 (n=2)
Lung/blood ratio, mild infection (A. fumigatus [2]; [9]): 0.81 (n=2)
Lung/blood ratio, severe infection (A. fumigatus [2]; [9]): 2.41 (n=1)
Lung/kidneys ratio, control (A. fumigatus [2]; [9]): 0.06 (n=2)
Lung/kidneys ratio, mild infection (A. fumigatus [2]; [9]): 0.12 (n=2)
Lung/kidneys ratio, severe infection (A. fumigatus [2]; [9]): 0.11 (n=1)
Lung/liver ratio, control (A. fumigatus [2]; [9]): 0.58 (n=2)
Lung/liver ratio, mild infection (A. fumigatus [2]; [9]): 1.17 (n=2)
Lung/liver ratio, severe infection (A. fumigatus [2]; [9]): 5.93 (n=1)
Mild infection (%ID/g - lungs) (A. fumigatus [2]; iron preload model, mildly infected rats, lungs 2 h after injection, n in cell): 0.14 (n=2) %ID/g
Control (%ID/g - lungs) (A. fumigatus [2]; iron preload model, rats showing no infection, lungs 2 h after injection, n in cell): 0.04 (n=2) %ID/g
Stability in 6-mM DTPA (%) (Stability in 6 mM DTPA; incubation time 30 min): 94.3%
Stability in 6-mM DTPA (%) (Stability in 6 mM DTPA; incubation time 60 min): 93.8%
Stability in 6-mM DTPA (%) (Stability in 6 mM DTPA; incubation time 120 min): 93.2%
Lung/blood ratio, control (mean ± sd) (A. fumigatus [3]; 2 h after injection): 1.48 ± 0.33 (n=5)
Lung/blood ratio, mild infection (mean ± sd) (A. fumigatus [3]; 2 h after injection): 5.45 ± 5.57 (n=4)
Lung/blood ratio, severe infection (mean ± sd) (A. fumigatus [3]; 2 h after injection): 62.35 ± 77.98 (n=5)
Lung/kidneys ratio, control (mean ± sd) (A. fumigatus [3]; 2 h after injection): 0.07 ± 0.02 (n=5)
Lung/kidneys ratio, mild infection (mean ± sd) (A. fumigatus [3]; 2 h after injection): 0.38 ± 0.42 (n=4)
Lung/kidneys ratio, severe infection (mean ± sd) (A. fumigatus [3]; 2 h after injection): 3.33 ± 2.85 (n=5)
Lung/liver ratio, control (mean ± sd) (A. fumigatus [3]; 2 h after injection): 0.87 ± 0.27 (n=5)
Lung/liver ratio, mild infection (mean ± sd) (A. fumigatus [3]; 2 h after injection): 5.45 ± 5.85 (n=4)
Lung/liver ratio, severe infection (mean ± sd) (A. fumigatus [3]; 2 h after injection): 47.79 ± 39.48 (n=5)
Mild infection (%ID/g - lungs) (mean ± sd) (A. fumigatus [3]; mildly infected rats, lungs ex vivo 2 h after injection, n in cell): 0.48 ± 0.54 %ID/g and 0.48 ± 0.54 (n=4) %ID/g
Control (%ID/g - lungs) (mean ± sd) (A. fumigatus [3]; rats showing no infection, lungs ex vivo 2 h after injection, n in cell): 0.04 ± 0.02 %ID/g and 0.04 ± 0.02 (n=5) %ID/g
Severe infection (%ID/g - lungs) (mean ± sd) (A. fumigatus [3]; severely infected rats, lungs ex vivo 2 h after injection, γ-counter, n in cell): 3.45 ± 1.00 (n=5) %ID/g
Blood level ([4]; 30 min after injection): 2.4 ± 0.86 %ID/g
Intestinal accumulation ([4]; 30 min after injection): 4.6 ± 1.42 %ID/g
Intestinal accumulation ([4]; 90 min after injection): 2.4 ± 0.85 %ID/g
Uptake by A. fumigatus in iron-deficient cultures ([5]; 5 ng ^68Ga-siderophore, 10-90 min, 96-well plates, filtration, γ-counter): rapid uptake
Blocking of uptake with excess of ferri-siderophore and/or sodium azide ([5]; iron-deficient cultures, 45 min incubation): could be blocked
Stability in 0.1-M FeCl3 (%) (Stability in 0.1 M FeCl3; incubation time 30 min): 92.9%
Stability in 0.1-M FeCl3 (%) (Stability in 0.1 M FeCl3; incubation time 60 min): 91.8%
Stability in 0.1-M FeCl3 (%) (Stability in 0.1 M FeCl3; incubation time 120 min): 94.5%
Stability in all of the tested media (Stability in human serum; human serum, 0.1 M FeCl3 and 6 mM DTPA, summary bound over all media): ≥ 90%
Stability in human serum (%) (Stability in human serum; incubation time 30 min): 99.9%
Stability in human serum (%) (Stability in human serum; incubation time 60 min): 99.9%
Stability in human serum (%) (Stability in human serum; incubation time 120 min): 99.9%
SUV (A. fumigatus [6]; calculated from PET imaging studies, n=10 (table)): 1.00 ± 0.81 (n=10)
Target/non-target ratio (A. fumigatus [6]; calculated from all PET imaging studies, n=13): 6.64 ± 2.91 (n=13)
Log P [7]: −1.65
Stability in kidney homogenate (%) [8]: 97.6%
Stability in liver homogenate (%) [8]: 71.3%
Stability in urine (%) ([8]; γ-counter): 95.9%
Stability in blood (%) ([8]; acetonitrile precipitation): 97.7%
